Columns and labels:
[1] = oral, cited from earlier work
rat liver microsomes = test: Metabolic stability in rat liver microsomes (RLM)
[2] = PK study in rats, cassette dosing of deuterated and non-deuterated analog; assay type: in vivo; settings: rat; 5 mg/kg; oral gavage or via catheter; % change vs. non-deuterated material
Method: (§1) The key PK parameters (presented as a % change vs. non-deuterated materials) are presented in Table 3 to include half-life (T1/2), area under the curve (AUC), bioavailability (F) and blood-to-plasma ration (BPR). Pharmacokinetics of the deuterated tryptamines was studied in rats. In a typical experiment, run as a cassette dosing, two groups of 5 Wistar female rats (200-250 g) with surgically inserted jugular vein catheter (Charles River, Andover, MA) were fasted for 12 h and then administered 5 mg/kg of the deuterated and 5 mg/kg of the related non-deuterated analog, by oral gavage or via a catheter for each group. At time points 0, 15, 30, 60 min, and 2, 4, 8, and 24 h, the resulting plasma was analyzed for the parent molecule using LC/MS spectroscopy. Two separate groups of 5 animals were used for determining blood-to-plasma ratio (BPR). Each group was sacrificed at time points 15 and 30 min, respectively, and the concentration of the parent drug was determined in the brain and plasma by LC/MS spectroscopy.

[3] = BPR: parent drug in brain and plasma of rats; assay type: in vivo; settings: rat, % change vs. non-deuterated material
Method: as §1

hrMAO-A = biological target: T1, hrMAO-A (Homo sapiens, UniProt P21397); test: Metabolic stability in the presence of hrMAO-A; assay type: in vitro ADME; settings: MAO-A; values in square brackets are within 10% difference (assay's accuracy), no deuteration effect
T1 construct: purchased XenoTech Lot #8213001
T1 sequence (P21397 1-527): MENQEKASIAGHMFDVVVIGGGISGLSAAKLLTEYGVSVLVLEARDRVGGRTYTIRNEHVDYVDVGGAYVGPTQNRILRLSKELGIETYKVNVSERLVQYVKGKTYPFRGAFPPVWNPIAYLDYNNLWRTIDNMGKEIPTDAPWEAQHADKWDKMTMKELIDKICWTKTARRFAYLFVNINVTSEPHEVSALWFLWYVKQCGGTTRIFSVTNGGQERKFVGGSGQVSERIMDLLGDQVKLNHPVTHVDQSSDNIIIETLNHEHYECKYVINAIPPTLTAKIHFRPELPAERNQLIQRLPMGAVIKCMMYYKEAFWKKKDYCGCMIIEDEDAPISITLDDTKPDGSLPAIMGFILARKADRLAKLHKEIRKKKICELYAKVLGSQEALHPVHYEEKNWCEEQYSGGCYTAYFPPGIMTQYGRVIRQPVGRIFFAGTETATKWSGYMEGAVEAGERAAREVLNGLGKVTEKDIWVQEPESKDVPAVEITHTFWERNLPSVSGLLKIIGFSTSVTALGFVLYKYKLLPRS
Method: The reaction mixture was prepared as described below. The co-dosed TAs were added into the reaction mixture at a final concentration of 1 microM each. The positive control, kynuramine (25 microM), was run simultaneously with the TAs in a separate reaction. The reaction mixture (without TAs or kynuramine) was equilibrated in a shaking water bath at 37° C. for 5 minutes. The reaction was initiated by the addition of the TAs or kynuramine, and the mixture was incubated in a shaking water bath at 37° C. Aliquots (100 microL) of the TA reaction mixture were withdrawn at 0, 5, 10, 20, 30, 60, and 120 minutes. Aliquots (100 microL) of the positive control reaction mixture were withdrawn at 0 and 30 minutes. TA and kynuramine samples were immediately combined with 100 microL of ice-cold 100% MeCN containing 0.1% formic acid and IS to terminate the reaction. The samples were then mixed and centrifuged to precipitate proteins. All TA samples were assayed by LC-HRAMS. The PARR (analyte to IS) at each time point was compared to the PARR at time 0 to determine the percent remaining at each time point. Reaction composition: hrMAO 0.02 mg/mL; Potassium Phosphate, pH 7.4 100 mM; Magnesium Chloride 5 mM; Test Articles (each) 1 microM.

SMILES: COc1cc(CCNCc2ccccc2OC)c(OC)cc1Cl [2C—C—NBOMe, 2-(4-Chloro-2,5-dimethoxyphenyl)-N-[(2-methoxyphenyl)methyl]ethan-1-amine]
- very strong psychedelic doses [1]: 500 to 700 µg
- orally active dose ([1]; doses as low as): ≥ 25 µg

SMILES: [2H]C([2H])(Cc1c[nH]c2ccc(OC)cc12)N(C)C [5-MeO-DMT-α,α-d2]
- RLM, % (half-life as % vs. the related nondeuterated compound) (rat liver microsomes; RLM, values in square brackets are within 10% difference (assay's accuracy), no deuteration effect): 185%
- collective kinetic deuterium isotope effect (reaction rate decrease for deuterated vs. non-deuterated molecule) (rat liver microsomes; rat liver microsomes, 0 to 60 min, disappearance of parent peak): 150-200%
- Deuterium Kinetic Isotope Effect (% change), AUC [2]: 60%
- Deuterium Kinetic Isotope Effect (% change), T1/2 [2]: 30%
- Deuterium Kinetic Isotope Effect (% change), BPR, 15 min ([3]; 15 min): 120%
- Deuterium Kinetic Isotope Effect (% change), BPR, 30 min ([3]; 30 min): 180%
- MAO, % (half-life as % vs. the related nondeuterated compound) (hrMAO-A): 227%
